Experimental data as given in paper PMC10996005, “Identification and Development of Cyclic Peptide Inhibitors of Hypoxia Inducible Factors 1 and 2 That Disrupt Hypoxia-Response Signaling in Cancer Cells” (Journal of the American Chemical Society, 2024).
Like-named read-outs stand apart in the source and are kept apart here. Where a SMILES comes first, the peptide text is derived from it. [ ]: non-standard residue; d: D form. Phe(4-CF3) = N[C@@H](Cc1ccc(C(F)(F)F)cc1)C(=O)O; Phe(4-Br) = N[C@@H](Cc1ccc(Br)cc1)C(=O)O; Phe(4-CN) = N#Cc1ccc(C[C@H](N)C(=O)O)cc1; Phe(4-Cl) = N[C@@H](Cc1ccc(Cl)cc1)C(=O)O; Phe(4-F) = N[C@@H](Cc1ccc(F)cc1)C(=O)O; Phe(4-I) = N[C@@H](Cc1ccc(I)cc1)C(=O)O; 1Nal = N[C@@H](Cc1cccc2ccccc12)C(=O)O; hPhe = N[C@@H](CCc1ccccc1)C(=O)O; 4Pal = N[C@@H](Cc1ccncc1)C(=O)O; Pen = CC(C)(S)[C@H](N)C(=O)O; hLeu = CC(C)CC[C@H](N)C(=O)O; hCys = N[C@@H](CCS)C(=O)O; Nle = CCCC[C@H](N)C(=O)O; Nva = CCC[C@H](N)C(=O)O; Abu = CC[C@H](N)C(=O)O; Aib = CC(C)(N)C(=O)O

Experiments:
[1] = target: T1, HIF-1α PAS-B domain (Homo sapiens, UniProt Q16665); test: MST binding to the PAS-B domain of HIF-1α; details: for Kd / Hill slope of binding curve to HIF-1α: MST; for Kd: mean ± SEM, n = 2 (n = 1 for most C1 analogues, n = 3 in Figure S2)
T1 construct: made in house
T1 sequence (Q16665 238-349 limits assumed): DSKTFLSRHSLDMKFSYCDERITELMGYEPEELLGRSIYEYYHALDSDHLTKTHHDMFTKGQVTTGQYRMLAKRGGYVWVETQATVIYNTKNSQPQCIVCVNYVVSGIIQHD
Procedure: (§1) All reagents were purchased from Fisher Scientific or Sigma Aldrich UK unless specified otherwise.
(§2) Restriction enzymes and microbiology reagents were purchased from New England Biolabs Inc., Fisher Scientific (UK) or Promega (UK) and were used as directed by the manufacturer. Primers and oligonucleotides were synthesised by Integrated DNA Technologies (UK). DNA sequencing was carried out by Eurofins MWG Operon (Germany).
(§3) Construction of the RTHS and SICLOPPS library, screening, purification of recombinant HIF proteins, and the PLA was conducted as previously described in Miranda et al., J. Am. Chem. Soc., 2013, 135(28); […]
(§4) Protein labelling with MST dye
(§5) Protein was buffer exchanged from storage buffer into labelling buffer (0.1 M NaHCO3, pH 8.5) using a PD spintrap G-25 column (GE healthcare). The protein concentration was then adjusted to 20 µM.
(§6) The commercially sourced MST dye (NanoTemper) was prepared as a 470 µM solution in DMSO, which was then further diluted to 60 µM using labelling buffer. To the protein solution was added an equal volume of dye solution, and the labelling reaction was left for 1 hour in the dark at room temperature.
(§7) The labelled protein was separated from unreacted dye by elution through a PD minitrap G-25 column (GE healthcare). Labelled protein was then aliquoted and stored at -80 °C. Extent of labelling was measured by the absorbance obtained using the UV-vis mode on a NanoDrop ND-1000 Spectrophotometer (NanoDrop Technologies, USA).
(§8) Labelled protein was thawed on ice and diluted to 50 nM in assay buffer containing 50 mM Tris pH 8.0, 150 mM NaCl, 5% (v/v) glycerol, 1 mM TCEP and 0.05% TWEEN-20. The protein solution was then centrifuged at 12000 rpm for 15 minutes at 4 °C and left on ice. Compounds were prepared and serially diluted in DMSO at 10x assay concentration, before diluting to 2x assay concentration in assay buffer.
(§9) The 2x compound solutions were then mixed 1:1 (v/v) with 50 nM labelled protein solution and left to incubate for 1 hour at room temperature. Solutions were then loaded into Monolith NT.115 Premium Capillaries (NanoTemper) and placed in the sample tray. MST experiments were carried out

[2] = target: T2, HIF-2α PAS-B domain (Homo sapiens, UniProt Q99814); test: MST binding to the PAS-B domain of HIF-2α; details: MST; for Kd: mean (n = 2) ± SEM
T2 construct: made in house
T2 sequence (Q99814 240-350 limits assumed): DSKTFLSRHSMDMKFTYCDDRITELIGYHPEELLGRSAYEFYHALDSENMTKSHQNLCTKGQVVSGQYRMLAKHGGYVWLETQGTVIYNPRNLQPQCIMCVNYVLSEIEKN
Procedure: as §1, §2, §3, §4, §5, §6, §7, §8, §9

Kd ([1]; read-out: KD for HIF-1α PAS-B) [µM] | Structure (SMILES) | other results
15.9 ± 0.3 | CC[C@H](C)[C@@H]1NC(=O)[C@H](CC(C)C)NC(=O)[C@H](CCCNC(=N)N)NC(=O)[C@H](CS)NC(=O)[C@H](Cc2ccccc2)NC(=O)[C@H](C(C)C)NC1=O [V, cyclo-CRLIVF] (cyclo(CRLIVF)) | –
80.2 ± 27.3 | CC[C@H](C)[C@@H]1NC(=O)[C@H](CC(C)C)NC(=O)[C@H](CCCNC(=N)N)NC(=O)[C@H](CS)NC(=O)[C@H](C)NC(=O)[C@H]([C@@H](C)CC)NC1=O [cyclo-CRLIIA] | Kd [2]: > 100 µM
12.8 ± 3.6 | CC[C@H](C)[C@@H]1NC(=O)[C@H](C)NC(=O)[C@H](CC(C)C)NC(=O)[C@H](CCCNC(=N)N)NC(=O)[C@H](CS)NC(=O)[C@H](Cc2ccccc2)NC1=O [cyclo-CRLAIF] (cyclo(CRLAIF)) | Kd [2]: 61 ± 9.1 µM
4.4 ± 1.3 | CC[C@H](C)[C@@H]1NC(=O)[C@H](CC(C)C)NC(=O)[C@H](CCCNC(=N)N)NC(=O)[C@H](CS)NC(=O)[C@H](Cc2ccccc2)NC(=O)[C@H](CCC(C)C)NC1=O [hL, cyclo-CRLIhLF] (cyclo(CRLI[hLeu]F)) | –
1.2 ± 0.7 | CC[C@H](C)[C@@H]1NC(=O)[C@H](CC(C)C)NC(=O)[C@H](CCCNC(=N)N)NC(=O)[C@H](CS)NC(=O)[C@H](CCc2ccccc2)NC(=O)[C@H]([C@@H](C)CC)NC1=O [hF, cyclo-CRLIIhF] (cyclo(CRLII[hPhe])) | improvement in HIF-1α binding affinity compared to the parent cyclic peptide cyclo-CRLIIF ([1]; MST KD ratio): 3 fold
> 100 | CC[C@H](C)[C@@H]1NC(=O)[C@H](CC(C)C)NC(=O)[C@H](CCCNC(=N)N)NC(=O)[C@H]([C@@H](C)O)NC(=O)[C@H](Cc2ccccc2)NC(=O)[C@H]([C@@H](C)CC)NC1=O [T, cyclo-TRLIIF] (cyclo(FTRLII)) | –
> 50 | CC[C@H](C)[C@@H]1NC(=O)[C@H](CC(C)C)NC(=O)[C@H](CCCNC(=N)N)NC(=O)[C@H](CCS)NC(=O)[C@H](Cc2ccccc2)NC(=O)[C@H]([C@@H](C)CC)NC1=O [hC, cyclo-hCRLIIF] (cyclo(F[hCys]RLII)) | –

Continued, molecule first:

Structure (SMILES) | Kd ([1]; read-out: KD for HIF-1α PAS-B) [µM] | other results
CC[C@H](C)[C@@H]1NC(=O)[C@H](CC(C)C)NC(=O)[C@H](CCCNC(=N)N)NC(=O)[C@H](CS)NC(=O)[C@H](Cc2ccc(C#N)cc2)NC(=O)[C@H]([C@@H](C)CC)NC1=O [CN, cyclo-CRLII(4-CN)F] (cyclo(CRLII[Phe(4-CN)])) | 4.4 ± 0.1 | –
CC[C@H](C)[C@@H]1NC(=O)[C@H](CC(C)C)NC(=O)[C@H](CCCNC(=N)N)NC(=O)[C@H](CS)NC(=O)[C@H](Cc2ccc(C(F)(F)F)cc2)NC(=O)[C@H]([C@@H](C)CC)NC1=O [CF3, cyclo-CRLII(4-CF3)F] (cyclo(CRLII[Phe(4-CF3)])) | 1.1 ± 0.5 | –
CC[C@H](C)[C@@H]1NC(=O)[C@H](CC(C)C)NC(=O)[C@H](CC(C)C)NC(=O)[C@H](CCCNC(=N)N)NC(=O)[C@H](CS)NC(=O)[C@H](Cc2ccccc2)NC1=O [cyclo-CRLLIF] (cyclo(CRLLIF); ring closure inferred) | – | Hill slope of binding curve to HIF-1α [1]: 1.22; Hill slope of binding curve to HIF-2α [2]: 1.45
CC[C@H](C)[C@@H]1NC(=O)[C@H](CC(C)C)NC(=O)[C@H](CCCNC(=N)N)NC(=O)[C@H](CS)NC(=O)[C@H](Cc2ccccc2)NC(=O)C(C)(C)NC1=O [Aib, cyclo-CRLIAibF] (cyclo([Aib]FCRLI)) | 22.4 ± 0.1 | –
CCC[C@@H]1NC(=O)[C@H]([C@@H](C)CC)NC(=O)[C@H](CC(C)C)NC(=O)[C@H](CCCNC(=N)N)NC(=O)[C@H](CS)NC(=O)[C@H](Cc2ccccc2)NC1=O [Nva, cyclo-CRLINvaF] (cyclo(CRLI[Nva]F)) | 22.1 ± 2.6 | –
CC[C@H](C)[C@@H]1NC(=O)[C@H](CC(C)C)NC(=O)[C@H](CCCNC(=N)N)NC(=O)[C@H](CCSC)NC(=O)[C@H](Cc2ccccc2)NC(=O)[C@H]([C@@H](C)CC)NC1=O [M, cyclo-MRLIIF] (cyclo(FMRLII)) | > 100 | –
CC[C@H](C)[C@@H]1NC(=O)[C@H](CC(C)C)NC(=O)[C@H](CCCNC(=N)N)NC(=O)[C@H](CS)NC(=O)[C@H](Cc2ccc(O)cc2)NC(=O)[C@H]([C@@H](C)CC)NC1=O [OH, cyclo-CRLIIY] (cyclo(CRLIIY)) | 7.4 ± 0.1 | –
CC[C@H](C)[C@@H]1NC(=O)[C@H](CC(C)C)NC(=O)[C@H](CCCNC(=N)N)NC(=O)[C@H](CS)NC(=O)[C@H](Cc2ccccc2)NC(=O)[C@H]([C@@H](C)CC)NC1=O [cyclo-CRLIIF] (cyclo(CRLIIF)) | – | Kd [2]: 10.9 ± 1.1 µM
CC[C@H](C)[C@@H]1NC(=O)[C@H](CC(C)C)NC(=O)[C@H](CCCNC(=N)N)NC(=O)[C@H](CS)NC(=O)[C@H](Cc2ccccc2)NC(=O)[C@H](CC(C)C)NC1=O [L, cyclo-CRLILF] (cyclo(CRLILF)) | 11.4 ± 0.4 | –
CC[C@H](C)[C@@H]1NC(=O)[C@H](CC(C)C)NC(=O)[C@H](CCCCN)NC(=O)[C@H](CS)NC(=O)[C@H](Cc2ccccc2)NC(=O)[C@H]([C@@H](C)CC)NC1=O [cyclo-CKLIIF] (cyclo(CKLIIF)) | – | Hill slope of binding curve to HIF-1α [1]: 1.33; Hill slope of binding curve to HIF-2α [2]: 1.38
CC[C@H](C)[C@@H]1NC(=O)[C@H](CC(C)C)NC(=O)[C@H](CCCNC(=N)N)NC(=O)[C@H](CS)NC(=O)[C@H](Cc2ccc(Cl)cc2)NC(=O)[C@H]([C@@H](C)CC)NC1=O [Cl, cyclo-CRLII(4-Cl)F] (cyclo(CRLII[Phe(4-Cl)])) | 1.2 ± 0.3 | –
CC[C@@H]1NC(=O)[C@H]([C@@H](C)CC)NC(=O)[C@H](CC(C)C)NC(=O)[C@H](CCCNC(=N)N)NC(=O)[C@H](CS)NC(=O)[C@H](Cc2ccccc2)NC1=O [Abu, cyclo-CRLIAbuF] (cyclo([Abu]FCRLI)) | 73.4 ± 4.8 | –
CC[C@H](C)[C@@H]1NC(=O)[C@H](CC(C)C)NC(=O)[C@H](CCCNC(=N)N)NC(=O)[C@H](CS)NC(=O)[C@H](Cc2ccc(F)cc2)NC(=O)[C@H]([C@@H](C)CC)NC1=O [F, cyclo-CRLII(4-F)F] (cyclo(CRLII[Phe(4-F)])) | 1.7 ± 0.2 | –
CC[C@H](C)[C@@H]1NC(=O)[C@H](CC(C)C)NC(=O)[C@H](CCCNC(=N)N)NC(=O)[C@H](C(C)(C)S)NC(=O)[C@H](Cc2ccccc2)NC(=O)[C@H]([C@@H](C)CC)NC1=O [Pen, cyclo-PenRLIIF] (cyclo(F[Pen]RLII)) | 5.7 ± 0.9 | –
CC[C@H](C)[C@H](NC(C)=O)C(=O)N[C@@H](Cc1ccc(I)cc1)C(=O)N[C@@H](CS)C(N)=O [Ac-I(4-iodo)FC-NH2] (Ac-Ile-[Phe(4-I)]-Cys-NH2) | 21.5 ± 3 | improvement in HIF-1α affinity over the parent tripeptide ([1]; MST KD ratio vs Ac-IFC-NH2): ~3 fold
CC[C@H](C)[C@@H]1NC(=O)[C@H](C(C)C)NC(=O)[C@H](CCCNC(=N)N)NC(=O)[C@H](CS)NC(=O)[C@H](Cc2ccccc2)NC(=O)[C@H]([C@@H](C)CC)NC1=O [cyclo-CRVIIF] (cyclo(CRVIIF); ring closure inferred) | – | Kd ([1]; KD for HIF-1α PAS-B): 65.5 ± 11.4 µM; selectivity for HIF-1α over HIF-2α ([1]; ratio of MST KD values): 2 fold
CC[C@H](C)[C@@H]1NC(=O)[C@H](CC(C)C)NC(=O)[C@H](CCCNC(=N)N)NC(=O)[C@H](CO)NC(=O)[C@H](Cc2ccccc2)NC(=O)[C@H]([C@@H](C)CC)NC1=O [S, cyclo-SRLIIF] (cyclo(FSRLII)) | > 100 | –
CCCC[C@@H]1NC(=O)[C@H]([C@@H](C)CC)NC(=O)[C@H](CC(C)C)NC(=O)[C@H](CCCNC(=N)N)NC(=O)[C@H](CS)NC(=O)[C@H](Cc2ccccc2)NC1=O [Nle, cyclo-CRLINleF] (cyclo(CRLI[Nle]F)) | 7.5 ± 0.9 | –
CC[C@H](C)[C@@H]1NC(=O)[C@H](CC(C)C)NC(=O)[C@H](CCCNC(=N)N)NC(=O)[C@H](CS)NC(=O)[C@H](Cc2ccncc2)NC(=O)[C@H]([C@@H](C)CC)NC1=O [4-Pal, cyclo-CRLII(4-Pal)] (cyclo([4Pal]CRLII)) | – | loss of affinity (KD) compared to cyclo-CRLIIF ([1]; MST KD ratio): ~11 fold
CC[C@H](C)[C@@H]1NC(=O)[C@H](CC(C)C)NC(=O)[C@H](CCCNC(=N)N)NC(=O)[C@H](CS)NC(=O)[C@H](Cc2ccc(Br)cc2)NC(=O)[C@H]([C@@H](C)CC)NC1=O [Br, cyclo-CRLII(4-Br)F] (cyclo(CRLII[Phe(4-Br)])) | 1 ± 0.2 | –
CC[C@H](C)[C@@H]1NC(=O)[C@H](CC(C)C)NC(=O)[C@H](CCCNC(=N)N)NC(=O)[C@H](CSC)NC(=O)[C@H](Cc2ccccc2)NC(=O)[C@H]([C@@H](C)CC)NC1=O [C(Me), cyclo-C(Me)RLIIF] (cyclo(C(Me)RLIIF)) | > 50 | –
CC[C@H](C)[C@H](NC(C)=O)C(=O)N[C@@H](Cc1ccccc1)C(=O)N[C@@H](CS)C(N)=O [Ac-IFC-NH2] (Ac-Ile-Phe-Cys-NH2) | – | loss of affinity (KD) compared to cyclo-CRLIIF ([1]; MST KD ratio): ~10 fold
CC[C@H](C)[C@@H]1NC(=O)[C@H](CC(C)C)NC(=O)[C@H](CCCNC(=N)N)NC(=O)[C@H](CS)NC(=O)[C@H](Cc2cccc3ccccc23)NC(=O)[C@H]([C@@H](C)CC)NC1=O [1-Nal, cyclo-CRLII(1-Nal)] (cyclo([1Nal]CRLII)) | 1.7 ± 0.5 | –
